Usually IC50 stands for the point on the concentration scale where inhibition reaches its midpoint. High values mean a need for much substance, low ones inhibition by little substance.

The values below come from patent publication US20190076406A1, “METHODS AND COMPOSITIONS FOR TREATING CONDITIONS ASSOCIATED WITH ANGIOGENESIS USING A VASCULAR ADHESION PROTEIN-1 (VAP-1) INHIBITOR” (MASSACHUSETTS EYE & EAR INFIRMARY, priority 2007, published 2019).

The test system of assay [1] is IL-1β-induced corneal angiogenesis in BALB/c mice. Briefly: IL-1β-induced corneal angiogenesis. In kind it is in vivo, mouse. To be noted: day 6 after pellet implantation; 0.3 mg/kg daily i.p. As to the method:
(§1) BALB/c mice were anesthetized by intrapcritoneal (i.p.) injection of pentobarbital sodium (60 mg/kg). Hydron pellets (0.3 μl) containing 30 ng mouse IL-1β (401-ML; R&D Systems) were prepared and implanted into the corneas. Pellets were positioned 1 mm from the corneal limbus. Implanted eyes were treated with Bacitracin ophthalmic ointment (E. Fougera & Co.) to prevent infection.
(§2) To block VAP-1, mice received daily i.p. injections of a specific VAP-1 inhibitor, Compound II (R-tech Ueno Ltd., Tokyo, Japan) as described above. A daily dose of 0.3 mg/kg was administered at day 0 and continued until the sixth day after implantation. Two, four and six days after implantation, digital images of the corneal vessels were obtained and recorded using OpenLab software version 2.2.5 (Improvision Inc.) with standardized illumination and contrast and were saved onto disks. The quantitative analysis of new vessel growth in the mouse corneas was performed using Scion Image software (version 4.0.2; Scion Corp.).

The test system is the same in assay [2]. Briefly: Leukocyte infiltration in IL-1β-implanted cornea (immunostaining). It counts as in vivo, mouse. Particulars: 0.3 mg/kg daily i.p. As to the method:
as §1, §2
Mice were sacrificed under deep anesthesia with pentobarbital sodium (60 mg/kg i.p.). The eyes were harvested, snap-frozen in optimal cutting temperature (OCT) compound (Sakura Finetechnical) and 10 μm sections were prepared, air-dried and fixed in cold acetone for 10 min. The sections were blocked with nonfat dried-milk (M7409; Sigma) for 10 minutes and stained with anti-CD11b mAb (1:100, 550282; BD Pharmingen), anti-Gr-1 mAb (1:100, 550282; BD Pharmingen) or anti-F4/80 mAb (1:100, MCA497G; Scrotec). After an overnight incubation, sections were washed and stained for 20 min. with secondary Abs, FITC-conjugated goat anti-rat (1:100, AP136F; Chemicon International).

The test system of another assay is ICAM-1. The experiment in a line: ELISA of ICAM-1 in RPE-choroid complex after laser injury. Particulars: 3 days after laser injury; 0.3 mg/kg daily i.p.; mean±SEM. It counts as in vivo, rat. How it is done:
(§3) Brown-Norway rats were anesthetized with 0.2-0.3 ml of a 50:50 mixture of 100 mg/ml Ketamine and 20 mg/ml Xylazine. Pupils were dilated with 5.0% Phenylephrine and 0.8% Tropicamide. CNV was induced with a 532 nm laser (Oculight GLx, Iridex, Mountain View, Calif.). Six laser spots (150 mW, 100 μm, 100 msec) were placed in each eye using a slit-lamp delivery system and a cover glass as a contact lens. Production of a bubble at the time of laser confirmed the rupture of the Bruch's membrane.
(§4) To block VAP-1, a specific VAP-1 inhibitor, Compound II described above, was used (R-tech Ueno, Ltd., Tokyo, Japan). […]
(§5) The RPE-choroid complex was carefully isolated from eyes 3 days after photocoagulation and placed in 300 μl of lysis buffer supplemented with protease inhibitors and sonicated. The lysate was centrifuged at 15,000 rpm for 15 minutes at 4° C. and the levels of TNF-α, monocyte chemotactic protein (MCP)-1, and intercellular adhesion molecule (ICAM)-1 were determined with rat TNF-α (BD bioscience), MCP-1 (BD bioscience) and ICAM-1 (R&D Systems, Minneapolis, Minn.) enzyme-linked immunosorbent assay (ELISA) kits according to the manufacturers' protocols. Total protein concentration was determined using a Bio-Rad Protein Assay Kit (Bio-Rad Laboratories Hercules, Calif.) and dilutions of bovine serum albumin (Bio-Rad Laboratories) as standards.
Background: ELISA stands for enzyme-linked immunosorbent assay.

In the next assay the target is T1, MAO-B (Homo sapiens, UniProt P27338).
T1 sequence (P27338 1-520): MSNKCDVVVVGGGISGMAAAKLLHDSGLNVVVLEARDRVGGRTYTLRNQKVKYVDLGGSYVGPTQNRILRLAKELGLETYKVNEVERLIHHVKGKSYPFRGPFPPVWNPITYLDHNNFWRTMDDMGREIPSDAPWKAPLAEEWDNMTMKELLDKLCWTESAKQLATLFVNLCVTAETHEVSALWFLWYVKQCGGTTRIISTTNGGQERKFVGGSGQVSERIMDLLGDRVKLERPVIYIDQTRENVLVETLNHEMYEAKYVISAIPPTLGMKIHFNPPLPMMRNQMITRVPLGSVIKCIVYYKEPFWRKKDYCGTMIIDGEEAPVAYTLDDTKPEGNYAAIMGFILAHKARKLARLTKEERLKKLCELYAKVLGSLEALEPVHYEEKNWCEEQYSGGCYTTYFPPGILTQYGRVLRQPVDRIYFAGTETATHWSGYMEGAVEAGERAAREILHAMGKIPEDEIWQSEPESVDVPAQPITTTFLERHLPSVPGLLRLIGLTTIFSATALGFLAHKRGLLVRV
Briefly: IC50 against MAO-B. It counts as biochemical.

The next assay has as its system TNF-α. The experiment in a line: ELISA of TNF-α in RPE-choroid complex after laser injury. To be noted: 3 days after laser injury; 0.3 mg/kg daily i.p.; mean±SEM. It counts as in vivo, rat. How it is done: as §3, §4, §5
Assay [3] has as its system laser-induced CNV in Brown-Norway rats. Briefly: Laser-induced CNV, fluorescein angiography leakage grading. It counts as in vivo, rat. To be noted: day 7 after laser injury, 0.3 mg/kg daily i.p., n=12. As to the method: as §3
To block VAP-1, a specific VAP-1 inhibitor, Compound II described above, was used (R-tech Ueno, Ltd., Tokyo, Japan). After laser injury, the inhibitor (0.3 mg/kg BW) was administered to the animals by daily i.p. injections. As a control, some animals received the same regimen for the vehicle solution alone.
Seven days after laser injury, vascular leakage from the CNV lesions was assessed using fluorescein angiography (FA), as described previously (Zambarakji et al. (2001) IOVS 42: 1553-60). Briefly, FA was performed in anesthetized animals from VAP-1 inhibitor- or vehicle-treated groups, using a digital fundus camera (Model TRC 50 IA; Topcon, Paramus, N.J.). Fluorescein injections were performed intraperitoneally (0.2 ml of 2% fluorescein; Akorn, Decatur, Ill.).
The Grade-IIB lesions were defined as clinically significant, as described previously.

SMILES strings stand for the structures.

Regarding `CC(=O)Nc1nc(CCc2ccc(NC(=N)NN)cc2)c(Cc2ccc(S(C)(=O)=O)cc2)s1` [Compound II], in assay [1], the “neovascular area relative to control mice (IL-1β alone or IL-1β+vehicle)” value is “about half”. Also, in assay [2] (3 days after pellet implantation), the “infiltration of CD11b(+) cells in cornea” value was “effectively inhibited”. In assay [2] (IL-1β-implanted cornea), the “number of F4/80(+) cells in cornea” value is reported as “less than in vehicle-treated cornea or untreated cornea” and the “number of Gr-1(+) cells in cornea” value is “less than in vehicle-treated cornea or untreated cornea”. The “ICAM-1 protein level in RPE-choroid complex” value in the assay on ICAM-1 worked out at 57 ± 2 ng/mg. The IC50 against MAO-B is above 10 µM. Moreover, the “TNF-α protein level in RPE-choroid complex” value with TNF-α was 360 ± 12 pg/mg. Moreover, the “incidence of clinically significant CNV lesions graded as IIB” value in assay [3] is 41.8%.
